Source: patent US4649153A, “5,6-Dihydro-4H-cyclopenta(b)thiophene-6-carboxylic acids, preparation processes and medicines containing them” (Lipha, Lyonnaise Industrielle Pharmaceutique, priority 1984, dated 1987)
Entries after “also recorded” stand apart in the source; their conditions may differ. Read-outs that look alike come from different tables or passages of the source.

Experiments:
[1] = Acute oral toxicity (LD50), mortality recorded 2 weeks later; conditions: mouse, in vivo, Table III, Swiss mice
Protocol: Lethal doses 50 (LD50) were determined by oral administration in Swiss mice. Mortality was recorded 2 weeks later.

UV erythema = experiment: Protection from UV erythema (Winter et al.), early inflammation; type: in vivo, guinea pigs; conditions: Cavia porcellus, read-out: Protection from UV ED 50
Protocol: White guinea pigs having their backs freshly depilated were radiated individually by exposure to the radiation of a UV lamp placed 25 cm above the animal's back for 1 min 30 sec. The zone to be radiated was delimited by a covering pierced with circular holes wrapping each animal. The erythema was visually marked 2 hours after exposure to radiation. The guinea pigs were treated orally with the test products 1 hour after exposure to UV.

carrageenan edema = experiment: Carrageenan edema test (Winter et al.), rat back paw, anti-inflammatory activity; type: in vivo, rats (male); conditions: for ED30: Rattus norvegicus, read-out: Carrageenan edema ED 30
Protocol: Edema of a back paw was caused in male rats by subplantar injection of a 1% suspension of carrageenan in apyrogenic physiological solute. Measurement of the edema by plethysmography occurred 3 hours later. The products studied were administered orally 1 hour before the carrageenan injection. The protection conferred by the treatment was determined by calculation of ED 30 (dose moderating the edema 30% in relation to untreated animals).

[2] = Table I, oral, 1 hour after UV exposure, guinea pigs, erythema marked 2 hours after exposure, dose reducing erythema 50%
[3] = Table I, oral, 1 hour before carrageenan, rats, edema measured 3 hours later, dose moderating edema 30%
[4] = Table II, oral, 1 hour after UV exposure, guinea pigs, dose reducing erythema 50%
[5] = Table II, oral, 1 hour before carrageenan, rats, dose moderating edema 30%

Row | Compound | ED50 (UV erythema; [2]) [mg/kg] | ED30 (carrageenan edema; [3]) [mg/kg] | ED50 (UV erythema; [4]) [mg/kg] | ED30 (carrageenan edema; [5]) [mg/kg] | other results
1 | Cc1sc2c(c1C(=O)c1cccs1)CCC2C(=O)O (stereo not shown) [Example 10, 2-Methyl 3-(2-thenoyl)-5,6-dihydro-4H-cyclopenta[b]thiophene-6-carboxylic acid] | 0.2 | 3 | – | – | LD50 at 336 h [1]: 275 mg/kg
2 | Cc1sc2c(c1C(=O)c1ccccc1)C(C(=O)O)CC2 (stereo not shown) [3-benzoyl-2-methyl-5,6-dihydro-4H-cyclopenta[b]thiophene-4-carboxylic acid, reference compound] | – | – | > 50 | > 30 | –
3 | O=C(c1ccccc1)c1cc2c(s1)CCC2C(=O)O (stereo not shown) [2-Benzoyl-5,6-dihydro-4H cyclopenta[b]thiophene-4-carboxylic, reference compound] | – | – | > 50 | > 30 | –
4 | COc1ccc2c(c1)c(CC(=O)O)c(C)n2C(=O)c1ccc(Cl)cc1 [INDOMETHACIN, 1-(4-chlorobenzoyl)-5-methoxy-2-methyl-3-indolylacetic acid, reference compound] | – | – | – | – | LD50 at 336 h [1]: 25 mg/kg; ED50 (UV erythema; po): 4.5 mg/kg; ED30 (carrageenan edema; po): 5 mg/kg
5 | CCc1sc2c(c1C(=O)c1ccccc1)CCC2C(=O)O (stereo not shown) [Example 38, 3-Benzoyl-2-ethyl-5,6-dihydro-4H-cyclopenta[b]thiophene-6-carboxylic acid] | 2 | 6 | – | – | –
6 | Cc1sc2c(c1C(=O)c1ccc(F)cc1)CCC2C(=O)O (stereo not shown) [Example 21, 3-(4-Fluorobenzoyl)-2-methyl-5,6-dihydro-4H-cyclopenta[b]thiophene-6-carboxylic acid] | 0.4 | 2.4 | – | – | –
7 | CC(C)Cc1sc2c(c1C(=O)c1ccccc1)CCC2C(=O)O (stereo not shown) [Example 32, 3-Benzoyl-2-isobutyl-5,6-dihydro-4H-cyclopenta[b]thiophene-6-carboxylic acid] | > 50 | > 50 | – | – | –
8 | Cc1sc2c(c1C(=O)c1ccc(N(C)C)cc1)CCC2C(=O)O (stereo not shown) [Example 27, 3-(4-Dimethylaminobenzoyl)-2-methyl-5,6-dihydro-4H-cyclopenta[b]thiophene-6-carboxylic acid] | 0.6 | 1.3 | – | – | –
9 | Cc1sc2c(c1C(=O)c1ccccc1)CCC2C(=O)O (stereo not shown) [Example 7, 3-Benzoyl-2-methyl-5,6-dihydro-4H-cyclopenta[b]thiophene-6-carboxylic acid] | 0.4 | 0.7 | 0.4 | – | LD50 at 336 h [1]: 275 mg/kg; Carrageenan edema ED 30 (carrageenan edema; [5]): 0.7 mg/kg; activity compared with Indomethacin and with isomeric 4-carboxylic acids (in words) (carrageenan edema; carrageenan edema, UV protection and Randall and Selitto tests): greater than that of Indomethacin; also recorded: considerably greater than that of 5,6-dihydro-4H-cyclopenta[b]thiophene-4-carboxylic isomeric acids
10 | CC(C)Cc1sc2c(c1C(=O)c1ccccc1)C(C(=O)O)CC2 (stereo not shown) [3-Benzoyl-2-isobutyl-5,6-dihydro-4Hcyclopenta[b]thio-phene-4-carboxylic acid, reference compound] | – | – | > 50 | > 30 | –
11 | CC(C)Cc1cc2c(s1)CCC2C(=O)O (stereo not shown) [2-Isobutyl-5,6-dihydro-4H cyclopenta[b]thiophene-4-carboxylic, reference compound] | – | – | > 50 | > 30 | –
